{"source": "patent US5900476A", "about": "“Therapeutic domains of van Willebrand factor” (The Scripps Research Institute, priority 1992, dated 1999)", "key": {"[1]": {"system": "GPIbα", "assay": "Inhibition of 125I LJ-Ib1 antibody binding to platelets, no modulator", "experimental": "(§1) To assess the inhibitory activity of p5E extracts on antibody binding, a concentration of LJ-Ib1 was first selected which would, in the absence of p5E extracts, provide half-maximal binding.\n(§2) LJ-Ib1 was iodinated by the procedure of Fraker, D.J. et al., Biochem. Biophys. Res. Commun., 80, 849-857 (1978) using I^125 from Amersham, Arlington Heights, IL and Iodogen (Pierce Chemical Co., Rockford, IL). Washed platelets were prepared by the albumin density gradient technique of Walsh, et al., Br. J. Haematol., 36, 281-298 (1977), and used at a count of 1 x 10^8 /ml.\nThe p5E polypeptide extract was purified according to the procedure of Example 4 including final purification of the urea-solubilized inclusion body preparation by dialysis against 6.0M guanidine and urea solutions followed by Q-Sepharose® chromatography.\nTo evaluate binding, platelets were incubated for 30 minutes at 22-25° C. with LJ-Ib1 (10 μg/ml) and concentrations of purified p5E protein (.002-10.0 μMolar) as indicated in FIGS. 3A and 3B. Inhibition was plotted in the presence of 2 μg/ml botrocetin, Sigma Chemical Co., St. Louis, MO, (FIG. 3B) and in the absence of botrocetin (FIG. 3A).\nLess than 5 percent of the ^125 I label bound to the platelets was contributed by labelled substances other than LJ-Ib1 as determined by binding competition experiments in the presence of a 100 fold excess of unlabelled LJ-Ib1. Background labelling was subtracted from data points. Binding of ^125 I LJ-Ib1 was expressed as a percentage of a control assay lacking recombinant polypeptides. […] It is known that botrocetin induces in circulating multisubunit von Willebrand factor and single subunits thereof a conformational change which enhances or permits binding to the GPIbα receptor. […] Structural similarity is therefore indicated.\nThe interaction the mutant molecules with GPIbα was evaluated using an assay (Sugimoto, M. et al., Biochemistry, 30, 5202-5209 (1991)) based on inhibition of binding of antibody LJ-Ib1 to platelets. The corresponding IC50 values (concentration of fragment required to inhibit 50% of antibody binding) are presented in Table 2 (no modulator) and Table 3 (botrocetin added).\nThe interaction of rvWF^441-733 with GPIbα was measured by the ability of rvWF^441-733 to inhibit the binding of an anti-GPIbα monoclonal antibody, LJ-IB1, to platelets. This assay, previously described in detail, (Sugimoto, M. et al., Biochemistry, 30, 5202-5208 (1991)) offers the advantage that the binding of LJ-Ib1, unlike that of native vWF, is not dependent on the presence of modulators, like ristocetin or botrocetin. Binding by vWF^441-733 to GPIbα is thought to block the region of GPIbα to which LJ-Ib1 binds."}, "[2]": {"system": "GPIbα", "assay": "Inhibition of 125I LJ-Ib1 antibody binding to platelets in the presence of botrocetin", "conditions": "botrocetin 2 μg/ml; LJ-Ib1 10 μg/ml; purified p5E protein; read-out: 50% inhibition of 125I LJ-Ib1 binding to platelets", "experimental": "as §1\nas §2, with “/ml. […]” for “/ml.”\nLess than 5 percent of the ^125 I label bound to the platelets was contributed by labelled substances other than LJ-Ib1 as determined by binding competition experiments in the presence of a 100 fold excess of unlabelled LJ-Ib1. […] Binding of ^125 I LJ-Ib1 was expressed as a percentage of a control assay lacking recombinant polypeptides. […]\nThe interaction the mutant molecules with GPIbα was evaluated using an assay (Sugimoto, M. et al., Biochemistry, 30, 5202-5209 (1991)) based on inhibition of binding of antibody LJ-Ib1 to platelets. […]\nThe interaction of rvWF^441-733 with GPIbα was measured by the ability of rvWF^441-733 to inhibit the binding of an anti-GPIbα monoclonal antibody, LJ-IB1, to platelets. […]"}, "[3]": {"system": "NMC-4 antibody", "assay": "Immunoblotting with conformation-dependent monoclonal antibody NMC-4", "format": "binding, murine", "experimental": "Polypeptides expressed from p7E, p7D and pJD18 were further characterized by immunoblotting (\"Western blotting\") according to a standard procedure Burnett et al., A. Anal. Biochem., 112, 195-203, (1981) and as recommended by reagent suppliers. Samples containing approximately 10 μg of protein from the urea-solubilized and dialyzed inclusion body extracts of host cells (containing p7E, p7D and pJD18 plasmids) were subjected to electrophoresis on 10% polyacrylamide gels, Laemli, U.K. Nature, 227, 680-685 (1970), in the presence of 2% concentration of sodium dodecyl sulfate.\nThe proteins were blotted and immobilized onto a nitrocellulose sheet (Schleicher and Schuell, Keene, NH) and the pattern was then visualized using immunoreactivity.\nThe secondary antibody (^125 I-rabbit anti-mouse IgG), labelled by the method of Fraker, P.J. et al. Biochem. Biophys. Res. Commun., 80, 849-857 (1978)), was incubated for 60 minutes at 25° C. on the nitrocellulose sheet. After rinsing, the sheet was developed by autoradiography.\nNMC-4 however, has as its epitope the domain of the von Willebrand factor subunit which contains the glycoprotein Ib binding site. […] Id. at 17903. […]"}, "[4]": {"conditions": "oxidized form (Cys509-Cys695 bond), absence of modulators, range of results over n experiments, read-out: (Oxidized) IC50"}, "[5]": {"conditions": "reduced/alkylated form, absence of modulators, range of results over n experiments, read-out: (Reduced/alkylated) IC"}}}
{"substance": "rvWF^441-704: C-terminal deletion fragment of the p5E vWF polypeptide terminating at residue 704", "values": [{"measurement": "IC50", "setting": "[1]; [4]", "value": "2600 to 3200", "unit": "nM"}, {"measurement": "IC50", "setting": "[1]; [5]", "value": "30 to 40", "unit": "nM"}]}
{"substance": "rvWF^441-700: C-terminal deletion fragment of the p5E vWF polypeptide terminating at residue 700", "values": [{"measurement": "IC50", "setting": "[1]; [4]", "value": "2000 to 3100", "unit": "nM"}, {"measurement": "IC50", "setting": "[1]; [5]", "value": 500, "unit": "nM"}]}
{"substance": "rvWF^441-696: C-terminal deletion fragment of the p5E vWF polypeptide terminating at residue 696", "values": [{"measurement": "IC50", "setting": "[1]; [4]", "value": "1000 to 1300", "unit": "nM"}, {"measurement": "Ability to inhibit LJ-Ib1 binding to platelets / affinity for GPIbα relative to rvWF^441-733", "setting": "[1]; reduced and alkylated form, Table 2", "value": "greatly reduced ability to inhibit LJ-Ib1 binding to platelets"}, {"measurement": "IC50", "setting": "[1]; [5]", "value": "> 4000", "unit": "nM"}]}
{"substance": "rvWF^441-733: recombinant vWF residue 441-733 fragment from p5E; Cys 459, 462, 464, 471, 474 replaced by Gly; Cys509-Cys695 retained; oxidized or reduced/alkylated", "values": [{"measurement": "IC50", "setting": "[2]", "value": "< 100", "unit": "nM"}, {"measurement": "Increase in binding affinity for NMC-4 compared to cysteine-free p7E species", "setting": "[3]; nonreducing conditions, single chain species, immunoblot", "value": "~120", "unit": "fold"}, {"measurement": "Affinity for NMC-4 after electrophoresis under reducing conditions", "setting": "[3]; reducing conditions, 100 mM DTT", "value": "remarkably decreased affinity for NMC-4"}, {"measurement": "IC50 of reduced and alkylated form relative to oxidized form", "setting": "[1]; absence of modulator, FIG. 3A", "value": "more than ten fold lower"}, {"measurement": "IC50", "setting": "[1]; [4]", "value": "3000 to 5000", "unit": "nM"}, {"measurement": "IC50", "setting": "[1]; [5]", "value": "70 to 300", "unit": "nM"}, {"measurement": "IC50", "setting": "[1]; without botrocetin, LJ-Ib1 10 μg/ml, purified p5E protein, read-out: Fifty percent inhibition of 125I LJ-Ib1 binding to platelets", "value": 10000, "unit": "nM"}]}
